Source: the supplement of paper PMC11208160

Assay: recombinant UMI read abundance after kanamycin selection (control-corrected) (log10(CPM+1)); higher = more efficient recombination; extreme values may be limits of the assay; sequences stand for … in AGTGCAGAGAAAATCGGCCAGTTTTCTCTGCCTGCAGTCCGCATGCCGTGGGACCCCTTGGGTTCTAACCTGTTGCCTAGATTTATGCAGCGGACTGCCTTTCTCCCAAAGTGATAAACCGG…AGGTTGGTTTCACT; site = the 11-nt donor
Summary of the method: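 In Escherichia coli, a pool of donor and donor-binding-loop pairs, each with a 12-nt UMI, was tested for the IS621 bridge recombinase. Plating was on IPTG (0.07 mM) plus kanamycin, or without selection, in two replicates. Recombinant UMIs were amplified by PCR across the donor–target junction and sequenced, and counts were reported as log10(CPM+1) after averaging and control-derived scaling.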
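Note: IS621 bridge recombinase in Escherichia coli cells against a fixed T5 target plasmid.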

Sequence | recombinant UMI read abundance (log10)
CGAGGAACATGGACCGGTTTTCCCGGTAATCCGTATTTGGG (site CGAGGAACTCC) | 1.53
AGGCTTTCATGGACCGGTTTTCCCGGTAATCCGTATTTGAC (site AGACTTTCTGT) | 0.817
CATGCAGCATGGACCGGTTTTCCCGGTAATCCGTATTTGAG (site CATGCAGCTCT) | 1.51
GGGAAGCCATGGACCGGTTTTCCCGGTAATCCGTATTTGGG (site GTGAAGCCTCC) | 0.0194
GCCACTTCATGGACCGGTTTTCCCGGTAATCCGTATTTGTT (site GCCACTTCTAA) | 0.855
GCGAAAACATGGACCGGTTTTCCCGGTAATCCGTATTTGCT (site GCGAAAACTAA) | 0.207
TACTGCACATGGACCGGTTTTCCCGGTAATCCGTATTTGGG (site TACTGCACTCC) | 0.0129
ACGAAAACATGGACCGGTTTTCCCGGTAATCCGTATTTGCA (site ACGAAAACTTG) | 2.73
CAGTCGACATGGACCGGTTTTCCCGGTAATCCGTATTTGGG (site CAGTTGACTCC) | 0.0173
TGTAGACCATGGACCGGTTTTCCCGGTAATCCGTATTTGAC (site TGTAGACCTGT) | 0
CATGGAACATGGACCGGTTTTCCCGGTAATCCGTATTTGTT (site CATGGAACTAA) | 1.85
GGGTATCCATGGACCGGTTTTCCCGGTAATCCGTATTTGTT (site GGGTATCCTAA) | 0.0203
ACTACTGCATGGACCGGTTTTCCCGGTAATCCGTATTTGCC (site ACTACTGCTGG) | 1.54
GACCGTTCATGGACCGGTTTTCCCGGTAATCCGTATTTGCT (site GACCGTTCTAG) | 1.7
AAAGGTACATGGACCGGTTTTCCCGGTAATCCGTATTTGAG (site AAAGGTACTCT) | 2.1
CACTCGGCATGGACCGGTTTTCCCGGTAATCCGTATTTGGA (site CACTTGGCTTC) | 0.0193
CGTTATCCATGGACCGGTTTTCCCGGTAATCCGTATTTGTT (site CGTTATCCTAA) | 0.375
GAATGGCCATGGACCGGTTTTCCCGGTAATCCGTATTTGCT (site GAATGGCCTGG) | 0
CCTTATACATGGACCGGTTTTCCCGGTAATCCGTATTTGGT (site CCTTATACTAC) | 0.00722

Sequence | recombinant UMI read abundance (log10)
TAGCTAGCATGGACCGGTTTTCCCGGTAATCCGTATTTGAA (site TCGCTAGCTTT) | 0.00871
GAAGATCCATGGACCGGTTTTCCCGGTAATCCGTATTTGTT (site GAAGATTCTAA) | 0.0204
AGAACTACATGGACCGGTTTTCCCGGTAATCCGTATTTGAC (site AGGACTACTGT) | 0.849
GTACGCCCATGGACCGGTTTTCCCGGTAATCCGTATTTGCA (site GTACGCCCTTG) | 1.16
CCTAAATCATGGACCGGTTTTCCCGGTAATCCGTATTTGAT (site CCTAAACCTAT) | 0
AGGAAGACATGGACCGGTTTTCCCGGTAATCCGTATTTGCA (site AGGAAGACTGG) | 1.34
GCGAAAACATGGACCGGTTTTCCCGGTAATCCGTATTTGCT (site GCGAAGACTAG) | 0
GTAGGTACATGGACCGGTTTTCCCGGTAATCCGTATTTGAC (site GTGGGTACTGT) | 2.19
CCTAATACATGGACCGGTTTTCCCGGTAATCCGTATTTGGA (site CCTAATACTTC) | 0.00465
CAATCCCCATGGACCGGTTTTCCCGGTAATCCGTATTTGCT (site CAATTCCCTAG) | 1.78
CGACGCGCATGGACCGGTTTTCCCGGTAATCCGTATTTGGG (site CGACGCGCTCC) | 0.672
TCCTTTGCATGGACCGGTTTTCCCGGTAATCCGTATTTGTG (site TCCTTTGCTCA) | 0.0203
GTGGGTTCATGGACCGGTTTTCCCGGTAATCCGTATTTGGC (site GTGGGTTCTGC) | 2.19
AATCAATCATGGACCGGTTTTCCCGGTAATCCGTATTTGGC (site AATCAATCTGC) | 2.07
AAGCTCGCATGGACCGGTTTTCCCGGTAATCCGTATTTGGG (site AAGCGCGCTCC) | 0.0107
CCCCCTACATGGACCGGTTTTCCCGGTAATCCGTATTTGAG (site CGCCCTACTCT) | 0.0197
ATTCAAGCATGGACCGGTTTTCCCGGTAATCCGTATTTGAG (site ATACAAGCTCT) | 1.07
AGGAAGACATGGACCGGTTTTCCCGGTAATCCGTATTTGCA (site CGTAAGACTTG) | 0.977
